Patent US20250360138A1 (priority 2022, published 2025)
“Also recorded” adds a separate entry of the source. Read-outs that look alike come from different tables or passages of the source.

Legend:
[1] = test system: HEK293T; assay: Mammalian cytotoxicity counter screen, luminescent ATP viability assay; type: cell-based, human; conditions: toxicity in mammalian cell cultures versus G. lamblia GS-clone 7 trophozoites
Protocol: Mammalian cytotoxicity assays. Mammalian cell lines were used for counter screening for general cytotoxicity of hit compounds from the primary screen: human embryonic kidney cells (HEK293T; ATCC CRL-3216) was used in a luminescent ATP assay for detection of cell viability.
Data analysis. Relative luminescence units (RLU) values were analyzed in Genedata Screener (v13.0-Standard). RLU was normalized to neutral controls minus inhibitors (DMSO-treated wells minus metronidazole-treated wells). For single-point primary assay plates, an additional run-wise median correction was applied to reduce screen artifacts, whereas no corrections were applied to triplicate dose response plates. For the mammalian cytotoxicity assays, RLU was uploaded into Genedata Screener, and the data was normalized to DMSO-treated wells minus puromycin-treated wells.

[2] = adult humans, daily oral doses over 7 days; cited from earlier work
[3] = Mouse pharmacokinetics, plasma concentration by LC-MS/MS; type: in vivo; conditions: for half-life: read-out: average half-life (t1/2); for Cmax: mouse plasma
Protocol: Methods for pharmacokinetic studies and analysis of mouse plasma compound concentrations by liquid chromatography with tandem mass spectrometry (LC-MS/MS) have previously been described (Hulverson et al., 2017, J Infect Dis 215:1275-1284; Ojo et al., 2012, J Clin Invest 122:2301-2305; and Schaefer et al., 2016, J Infect Dis 214:1856-1864). The pK studies was performed in groups of 3 mice per compound. […] Blood samples collected at intervals between 0.5 and 24 hours were separated and extracted with acetonitrile for measurement of compound concentrations by combined liquid chromatography-electrospray mass spectrometry (LC/ES-MS).

[4] = Clinical evaluation of overall health of mice in PK and efficacy studies; type: in vivo
[5] = test system: G. lamblia CBG99; assay: Luciferase reporter acute murine Giardia infection model, whole animal IVIS imaging; type: in vivo, Giardia lamblia
Excerpt: The method relies on a stable constitutive luciferase reporter, CBG99 (Click beetle green), that correlates with parasite load in vitro and in vivo. […] Only mice with confirmed infections are used in experiments.
All animal experiments were approved by the Institutional Animal Care and Use Committees at the University of Washington.
The method relies on a stable constitutive reporter, CBG99, that correlates with total parasite load.

[6] = test system: metronidazole resistant 713-M3 strain; assay: Cell growth inhibition against metronidazole resistant 713-M3 strain; type: cell-based, Giardia lamblia
Protocol: (§1) Giardia lamblia culture. G. lamblia WB6 strain, G. lamblia CBG99 strain, metronidazole-resistant strain 713-M3 and G. lamblia (Lambl) Alexeieff trophozoites (GS-clone H7; ATCC 50581) used for the primary screening were maintained in modified TYI-S-33 medium (ATCC 2695) and assayed as earlier described (Keister, 1983, Trans R Soc Trop Med Hyg 77: 487-488). Subsequent assays, including the mouse model of infection, used the G. lamblia click beetle green (CBG99) strain which was grown and assayed as previously described (Michaels et al., 2020, J Antimicrob Chemother 75:1218-1227; and Keister, 1983, Trans R Soc Trop Med Hyg 77:487-488).

[7] = Resazurin-based viability assay, HepG2; type: cell-based; conditions: human, HepG2 hepatocellular carcinoma cells
Protocol: (§2) Experimental details for the assays were earlier described (Love et al., 2017, PLoS Negl Trop Dis 11:e0005373). Compounds in the follow-up assays were also tested for the inhibition of CRL-8155 (human lymphocytic cells and human hepatocellular carcinoma cells (HepG2; ATCC HB-8065) in a resazurin-based viability assay as indicators of potential host cell toxicity. Assays were performed as previously reported (Vidadala et al., 2014, Eur J Med Chem 74:562-57).

[8] = test system: G. lamblia WB6 (Assemblage A); assay: Cell growth inhibition against G. lamblia WB6; type: cell-based, Giardia lamblia
Protocol: as §1

[9] = Resazurin-based viability assay, CRL-8155; type: cell-based; conditions: human, CRL-8155 lymphocytic cells; CRL-8155 cells
Protocol: as §2

[10] = test system: G. lamblia GS-clone H7 trophozoites; assay: G. lamblia GS-clone H7 trophozoite growth, ATP-based bioluminescence (BacTiter-Glo) primary screen and dose response; type: cell-based; conditions: read-out: Anti-Giardia EC50
[11] = Mouse pharmacokinetics, plasma concentration by LC-MS/MS; type: in vivo; conditions: infected mice, all treatment groups, days 6 and 7 post-infection (24 and 48 hours after first dose)
[12] = G. lamblia GS-clone H7 (Assemblage B) trophozoites, 48 hours, dose response

In the case of `CS(=O)(=O)Nc1ccc(C(=O)O[C@@H](Cc2c(Cl)c[n+]([O-])cc2Cl)c2ccc(OC(F)F)c(OCC3CC3)c2)cc1OCC1CC1` [CHF-6001], the “Selectivity index (SI), CC50/EC50” value [1] is reported as > 12.
For `C=CC(=O)N[C@H]1CN(c2nc(Nc3cn(C)nc3OC)c3ncn(C)c3n2)C[C@@H]1F` [Mavelertinib], the “daily oral dose causing diarrhea and skin toxicities as most common adverse events” value [2] is given as > 150 mg, the half-life ([3]; in vivo, mouse, single oral 5 mg/kg) is given as 3.99 h and the Cmax ([3]; single oral 5 mg/kg) is given as 0.63 µM. For the same compound, the Cmax ([3]; single oral 20 mg/kg) was 3.5 µM, the Cmax ([3]; single oral 50 mg/kg) was 9.3 µM and the plasma level ([3]; mouse, 1 mg/kg QD, 1 mg/kg) was “barely detectable in the plasma of one mouse at 0.5 hours post dose and below the limit of detection at all subsequent time points”. For the same compound, the “plasma concentration at 24 h post dose” value ([3]; mouse, all dosage groups, single dose) was “cleared from plasma by 24 hours; also recorded: below the detection limit”, the AUC ([3]; mouse, single oral 5 mg/kg) was 89 µmol·min/L and the Clearance ([3]; mouse, single oral 5 mg/kg) was 0.015 L/min. For the same compound, the AUC ([3]; mouse, single oral 20 mg/kg) was 300 µmol·min/L, the Clearance ([3]; mouse, single oral 20 mg/kg) was 0.004 L/min and the AUC ([3]; mouse, single oral 50 mg/kg) was 812 µmol·min/L. It also gave a Clearance ([3]; mouse, single oral 50 mg/kg) of 0.0016 L/min, a Tmax ([3]; plasma, oral, mouse, all doses) of 0.5 h and a half-life ([3]; plasma, mouse, single oral 20 mg/kg) of 2.91 h. For the same compound, the half-life ([3]; plasma, mouse, single oral 50 mg/kg) was 2.09 h, the “signs of toxicity in mice” value [4] was “no sign of toxicity; also recorded: no observable mavelertinib induced toxicology potentials” and the clearance of infection ([5]; IFN-γ-knockout mice, 1 mg/kg QD×4 days (days 6-9 p.i.), 1 mg/kg) was “None of the 1 mg/kg QD×4 days mice were relieved of their infection; also recorded: did not clear the infection after 4 doses”. The “efficacy in the acute murine Giardia infection model” value ([5]; dosed as low as 5 mg/kg or as high as 50 mg/kg) was “efficacious; also recorded: effectively clears Giardia infection”, the clearance of infection ([5]; mice, 2.5 mg/kg QD×2 days) was “one of four mice remained infected” and the “clearance of infection (luminescence signal)” value ([5]; mice, 5 mg/kg QD×2 days, 5 mg/kg) was “cleared the infection below the background signal; also recorded: absence of luminescence signal”. For the same compound, the “clearance of infection (luminescence signal)” value ([5]; mice, 20 mg/kg QD×2 days, 20 mg/kg) was “cleared the infection below the background signal; also recorded: absence of luminescence signal”, the clearance of infection ([5]; mice, 50 mg/kg QD for 3 days, oral) was “appeared to clear the infection” and the “clearance of infection (luminescence signal)” value ([5]; mice, 50 mg/kg QD×1 day, 50 mg/kg) was “cleared the infection below the background signal; also recorded: absence of luminescence signal”. For the same compound, the “parasite rebound after treatment” value ([5]; mice, one week after the last therapeutic dose) was “parasites did not rebound”, the clearance of infection ([5]; mice, one- and two-day dosing of 50 mg/kg QD) was “all treated mice were cleared of infection and remained clear a week after dosing” and the EC50 ([6]; Giardia duodenalis) was 0.07 µM. For the same compound, the CC50 [7] was > 80 µM, the EC50 ([8]; Giardia duodenalis) was 0.27 µM and the CC50 [9] was > 80 µM. The EC50 ([10]; Giardia duodenalis, 48 h) was 2.34 µM and the plasma trough levels [11] was “below the limit of quantitation”.
`CCCN(CCC)c1ccc(N=Nc2ccccc2C(=O)O)cc1` [propyl red] gave an EC50 [10, 12] of 5.78 µM.
In the case of `CCN(CC)CCn1c(=O)c(Cc2ccc(OC)cc2)nc2ccccc21` [caroverine], the “Selectivity index (SI), CC50/EC50” value [1] is reported as > 2 and the EC50 ([10]; Giardia duodenalis, G. lamblia GS-clone H7 (Assemblage B) trophozoites, 48 hours, dose response) is reported as 13.7 µM.
Work on `CS(=O)(=O)OCCN(CCBr)c1c(C(=O)NCCOP(=O)(O)O)cc([N+](=O)[O-])cc1[N+](=O)[O-]` [PR-104] yielded an EC50 [10, 12] of 1.98 µM.
In the case of `CC(=O)C[C@H]1CCCCN1` [pelletierine], the EC50 ([6]; metronidazole resistant 713-M3, read-out: EC50) is reported as > 25 µM, the EC50 [8] is reported as > 25 µM and the EC50 [10, 12] is reported as 20.3 µM.
With `Cc1ncc([N+](=O)[O-])n1CCO` [metronidazole] the clearance of infection ([5]; mice, 20 mg/kg QD×3 days) was “remained infected after treatment”.
